The values below come from patent US9732119B2, “Immunomodulators” (BRISTOL-MYERS SQUIBB COMPANY, priority 2014, dated 2017).

This assay deals with T1, PD-1-Ig binding to PD-L1-TVMV-His (PD-L1-His) (Homo sapiens, UniProt Q9NZQ7).
T1 construct: hPDL1(19-239)-TVMV-His; made in house; host or cells: HEK293T cells
The assay can be described thus: PD-1/PD-L1 Homogenous Time-Resolved Fluorescence (HTRF) binding assay. To be noted: PD-1-Ig (20 nM) / PD-L1-His (10 nM). The source says: The ability of the macrocyclic peptides of the present disclosure to bind to PD-L1 was investigated using a PD-1/PD-L1 Homogenous Time-Resolved Fluorescence (HTRF) binding assay.
Homogenous Time-Resolved Fluorescence (HTRF) Assays of Binding of Soluble PD-1 to Soluble PD-L1. Soluble PD-1 and soluble PD-L1 refers to proteins with carboxyl-end truncations that remove the transmembrane-spanning regions and are fused to heterologous sequences, specifically the Fc portion of the human immunoglobuling G sequence (Ig) or the hexahistidine epitope tag (His). All binding studies were performed in an HTRF assay buffer consisting of dPBS supplemented with 0.1% (w/v) bovine serum albumin and 0.05% (v/v) Tween-20. For the PD-1-Ig/PD-L1-His binding assay, inhibitors were pre-incubated with PD-L1-His (10 nM final) for 15 m in 4 μl of assay buffer, followed by addition of PD-1-Ig (20 nM final) in 1 μl of assay buffer and further incubation for 15 m. PD-L1 fusion proteins from either human, cynomologous macaques, mouse, or other species were used. HTRF detection was achieved using europium crypate-labeled anti-Ig monoclonal antibody (1 nM final) and allophycocyanin (APC) labeled anti-His monoclonal antibody (20 nM final). Antibodies were diluted in HTRF detection buffer and 5 μl was dispensed on top of binding reaction. […] Additional binding assays were established between PD-1-Ig/PD-L2-His (20 and 5 nM, respectively), CD80-His/PD-L1-Ig (100 and 10 nM, respectively) and CD80-His/CTLA4-Ig (10 and 5 nM, respectively).
Recombinant Proteins. […] Human PD-L2-His (Sino Biologicals), CD80-His (Sino Biologicals), CTLA4-Ig (RnD Systems) were all obtained through commercial sources.

pIC50: −log10 of the molar value. Non-standard residues stand in square brackets, D forms with d. Residues, ends and D or L forms follow the SMILES beside them. Hyp = O=C(O)[C@@H]1C[C@@H](O)CN1; NMeNle = CCCC[C@H](NC)C(=O)O; NMeA = CN[C@@H](C)C(=O)O; Dab = NCC[C@H](N)C(=O)O; Dap = NC[C@H](N)C(=O)O; GABA = NCCCC(=O)O; βAla = NCCC(=O)O; Sar = CNCC(=O)O

T1 sequence (Q9NZQ7 with tags, fused parts or gaps): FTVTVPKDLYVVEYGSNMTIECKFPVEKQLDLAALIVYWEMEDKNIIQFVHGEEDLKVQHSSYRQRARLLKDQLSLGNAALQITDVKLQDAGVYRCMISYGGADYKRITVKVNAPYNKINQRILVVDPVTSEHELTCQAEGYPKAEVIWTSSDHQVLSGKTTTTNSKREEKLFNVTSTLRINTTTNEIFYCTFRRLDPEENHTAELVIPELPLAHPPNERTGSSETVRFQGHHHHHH

Where the note is “range classes”, `CCCC[C@H]1C(=O)N(C)[C@@H](CCCC)C(=O)N[C@@H](CC(C)C)C(=O)NCCC(=O)N[C@@H](Cc2ccc(O)cc2)C(=O)N(C)[C@@H](C)C(=O)N[C@@H](CC(N)=O)C(=O)N2CCC[C@H]2C(=O)N[C@@H](Cc2c[nH]cn2)C(=O)N[C@@H](CC(C)C)C(=O)N2C[C@H](O)C[C@H]2C(=O)N[C@@H](Cc2c[nH]c3ccccc23)C(=O)NCC(=O)N[C@@H](Cc2c[nH]c3ccccc23)C(=O)N1C` [Example 5003] (cyclo(GW[NMeNle][NMeNle]L[βAla]Y[NMeA]NPHL[Hyp]W)) showed a pIC50 of 5.00 to 7.00.
`CCCC[C@H]1C(=O)N(C)[C@@H](CCCC)C(=O)N[C@@H](CC(C)C)C(=O)NCC(=O)NCCC(=O)N[C@@H](Cc2ccc(O)cc2)C(=O)N(C)[C@@H](C)C(=O)N[C@@H](CC(N)=O)C(=O)N2CCC[C@H]2C(=O)N[C@@H](Cc2c[nH]cn2)C(=O)N[C@@H](CC(C)C)C(=O)N2C[C@H](O)C[C@H]2C(=O)N[C@@H](Cc2c[nH]c3ccccc23)C(=O)NCC(=O)N[C@@H](Cc2c[nH]c3ccccc23)C(=O)N1C` [Example 5004] (cyclo(GW[NMeNle][NMeNle]LG[βAla]Y[NMeA]NPHL[Hyp]W)) showed a negative-log IC50 (pIC50) (range classes) of 5.00 to 7.00.
As for `CCCC[C@H]1C(=O)N(C)[C@@H](CCCC)C(=O)N[C@@H](CC(C)C)C(=O)NCCCC(=O)NCC(=O)N[C@@H](Cc2ccc(O)cc2)C(=O)N(C)[C@@H](C)C(=O)N[C@@H](CC(N)=O)C(=O)N2CCC[C@H]2C(=O)N[C@@H](Cc2c[nH]cn2)C(=O)N[C@@H](CC(C)C)C(=O)N2C[C@H](O)C[C@H]2C(=O)N[C@@H](Cc2c[nH]c3ccccc23)C(=O)NCC(=O)N[C@@H](Cc2c[nH]c3ccccc23)C(=O)N1C` [Example 5005] (cyclo(GW[NMeNle][NMeNle]L[GABA]GY[NMeA]NPHL[Hyp]W)), the pIC50 (range classes) is 5.00 to 7.00.
As to `CCCC[C@H]1C(=O)N(C)[C@@H](CCCC)C(=O)N[C@@H](CC(C)C)C(=O)N[C@@H](C)C(=O)NCC(=O)N[C@@H](Cc2ccc(O)cc2)C(=O)N(C)[C@@H](C)C(=O)N[C@@H](CC(N)=O)C(=O)N2CCC[C@H]2C(=O)N[C@@H](CN)C(=O)N[C@@H](CC(C)C)C(=O)N2C[C@H](O)C[C@H]2C(=O)N[C@@H](Cc2c[nH]c3ccccc23)C(=O)N[C@@H](CCN)C(=O)N[C@@H](Cc2c[nH]c3ccccc23)C(=O)N1C` [Example 5006] (cyclo(AGY[NMeA]NP[Dap]L[Hyp]W[Dab]W[NMeNle][NMeNle]L)), the pIC50 (range classes) is 7.00 to 8.00.
Where the note is “range classes”, `CCCC[C@H]1C(=O)N(C)[C@@H](CCCC)C(=O)N[C@@H](CC(C)C)C(=O)N[C@H](C)C(=O)NCC(=O)N[C@@H](Cc2ccc(O)cc2)C(=O)N(C)[C@@H](C)C(=O)N[C@@H](CC(N)=O)C(=O)N2CCC[C@H]2C(=O)N[C@@H](CN)C(=O)N[C@@H](CC(C)C)C(=O)N2C[C@H](O)C[C@H]2C(=O)N[C@@H](Cc2c[nH]c3ccccc23)C(=O)N[C@@H](CCN)C(=O)N[C@@H](Cc2c[nH]c3ccccc23)C(=O)N1C` [Example 5007] (cyclo([Dab]W[NMeNle][NMeNle]L[dA]GY[NMeA]NP[Dap]L[Hyp]W)) had a pIC50 of 8.00 to 9.00.
Same read-out and setting: then `CCCC[C@H]1C(=O)N(C)[C@@H](CCCC)C(=O)N[C@@H](CC(C)C)C(=O)N2CCC[C@@H]2C(=O)NCC(=O)N[C@@H](Cc2ccc(O)cc2)C(=O)N(C)[C@@H](C)C(=O)N[C@@H](CC(N)=O)C(=O)N2CCC[C@H]2C(=O)N[C@@H](CN)C(=O)N[C@@H](CC(C)C)C(=O)N2C[C@H](O)C[C@H]2C(=O)N[C@@H](Cc2c[nH]c3ccccc23)C(=O)N[C@@H](CCN)C(=O)N[C@@H](Cc2c[nH]c3ccccc23)C(=O)N1C` [Example 5008] (cyclo([Dab]W[NMeNle][NMeNle]L[dP]GY[NMeA]NP[Dap]L[Hyp]W)), with 8.00 to 9.00.
On the same count and under the same terms, the figure for `CCCC[C@H]1C(=O)N(C)[C@@H](CCCC)C(=O)N[C@@H](CC(C)C)C(=O)N(C)CC(=O)NCC(=O)N[C@@H](Cc2ccc(O)cc2)C(=O)N(C)[C@@H](C)C(=O)N[C@@H](CC(N)=O)C(=O)N2CCC[C@H]2C(=O)N[C@@H](CN)C(=O)N[C@@H](CC(C)C)C(=O)N2C[C@H](O)C[C@H]2C(=O)N[C@@H](Cc2c[nH]c3ccccc23)C(=O)N[C@@H](CCN)C(=O)N[C@@H](Cc2c[nH]c3ccccc23)C(=O)N1C` [Example 5009] (cyclo([Dab]W[NMeNle][NMeNle]L[Sar]GY[NMeA]NP[Dap]L[Hyp]W)) is 8.00 to 9.00; for `CCCC[C@H]1C(=O)N(C)[C@@H](CCCC)C(=O)N[C@@H](CC(C)C)C(=O)N[C@H](C(=O)NCC(N)=O)CNCC(=O)N[C@@H](Cc2ccc(O)cc2)C(=O)N(C)[C@@H](C)C(=O)N[C@@H](CC(N)=O)C(=O)N2CCC[C@H]2C(=O)N[C@@H](CCC(N)=O)C(=O)N[C@@H](CC(C)C)C(=O)N2C[C@H](O)C[C@H]2C(=O)N[C@@H](Cc2c[nH]c3ccccc23)C(=O)N[C@@H](CC(N)=O)C(=O)N[C@@H](Cc2cn(CC(=O)O)c3ccccc23)C(=O)N1C` [Example 9005] it is 8.00 to 9.00.
On the same count and under the same terms, then `CCCC[C@H]1C(=O)N(C)[C@@H](CCCC)C(=O)N[C@@H](CC(C)C)C(=O)N[C@H](C(=O)NCC(N)=O)CNCC(=O)N[C@@H](Cc2ccc(O)cc2)C(=O)N(C)[C@@H](C)C(=O)N[C@@H](CC(N)=O)C(=O)N2CCC[C@H]2C(=O)N[C@@H](CCC(N)=O)C(=O)N[C@@H](CC(=O)O)C(=O)N2C[C@H](O)C[C@H]2C(=O)N[C@@H](Cc2c[nH]c3ccccc23)C(=O)N[C@@H](CC(N)=O)C(=O)N[C@@H](Cc2cn(CC(=O)O)c3ccccc23)C(=O)N1C` [Example 9006], with 8.00 to 9.00.
For `CCCC[C@H]1C(=O)N(C)[C@@H](CCCC)C(=O)N[C@@H](CC(C)C)C(=O)N[C@H](C(=O)NCC(N)=O)CNCC(=O)N[C@@H](Cc2ccc(O)cc2)C(=O)N(C)[C@@H](C)C(=O)N[C@@H](CC(N)=O)C(=O)N2CCC[C@H]2C(=O)N[C@@H](CCC(N)=O)C(=O)N[C@@H](CCC(=O)O)C(=O)N2C[C@H](O)C[C@H]2C(=O)N[C@@H](Cc2c[nH]c3ccccc23)C(=O)N[C@@H](CC(N)=O)C(=O)N[C@@H](Cc2cn(CC(=O)O)c3ccccc23)C(=O)N1C` [Example 9007], the pIC50 (numeric values) was 8.30.
Regarding `CCCC[C@H]1C(=O)N(C)[C@@H](CCCC)C(=O)N[C@@H](CC(C)C)C(=O)N[C@H](C(=O)NCC(N)=O)CNCC(=O)N[C@@H](Cc2ccc(O)cc2)C(=O)N(C)[C@@H](C)C(=O)N[C@@H](CC(N)=O)C(=O)N2CCC[C@H]2C(=O)N[C@@H](CCC(N)=O)C(=O)N[C@@H](CCC(N)=O)C(=O)N2C[C@H](O)C[C@H]2C(=O)N[C@@H](Cc2c[nH]c3ccccc23)C(=O)N[C@@H](CC(N)=O)C(=O)N[C@@H](Cc2cn(CC(=O)O)c3ccccc23)C(=O)N1C` [Example 9008], the pIC50 (range classes) was 8.00 to 9.00.
On the same count and under the same terms, the figure for `CCCC[C@H]1C(=O)N(C)[C@@H](CCCC)C(=O)N[C@@H](CC(C)C)C(=O)N[C@H](C(=O)NCC(N)=O)CNCC(=O)N[C@@H](Cc2ccc(F)cc2)C(=O)N(C)[C@@H](C)C(=O)N[C@@H](CC(N)=O)C(=O)N2CCC[C@H]2C(=O)N[C@@H](CCC(N)=O)C(=O)N[C@@H](CC(C)C)C(=O)N2C[C@H](O)C[C@H]2C(=O)N[C@@H](Cc2c[nH]c3ccccc23)C(=O)N[C@@H](CC(N)=O)C(=O)N[C@@H](Cc2cn(CC(=O)O)c3ccccc23)C(=O)N1C` [Example 9009] is 8.00 to 9.00; for `CCCC[C@H]1C(=O)N(C)[C@@H](CCCC)C(=O)N[C@@H](CC(C)C)C(=O)N[C@H](C(=O)NCC(N)=O)CNCC(=O)N[C@@H](Cc2ccc(F)cc2)C(=O)N(C)[C@@H](C)C(=O)N[C@@H](CC(N)=O)C(=O)N2CCC[C@H]2C(=O)N[C@@H](CCC(N)=O)C(=O)N[C@@H](CC(=O)O)C(=O)N2C[C@H](O)C[C@H]2C(=O)N[C@@H](Cc2c[nH]c3ccccc23)C(=O)N[C@@H](CC(N)=O)C(=O)N[C@@H](Cc2cn(CC(=O)O)c3ccccc23)C(=O)N1C` [Example 9010] it is 7.00 to 8.00; for `CCCC[C@H]1C(=O)N(C)[C@@H](CCCC)C(=O)N[C@@H](CC(C)C)C(=O)N[C@H](C(=O)NCC(N)=O)CNCC(=O)N[C@@H](Cc2ccc(F)cc2)C(=O)N(C)[C@@H](C)C(=O)N[C@@H](CC(N)=O)C(=O)N2CCC[C@H]2C(=O)N[C@@H](CCC(N)=O)C(=O)N[C@@H](CCC(=O)O)C(=O)N2C[C@H](O)C[C@H]2C(=O)N[C@@H](Cc2c[nH]c3ccccc23)C(=O)N[C@@H](CC(N)=O)C(=O)N[C@@H](Cc2cn(CC(=O)O)c3ccccc23)C(=O)N1C` [Example 9011] it is 7.00 to 8.00.
Take `CCCC[C@H]1C(=O)N(C)[C@@H](CCCC)C(=O)N[C@@H](CC(C)C)C(=O)N[C@H](C(=O)NCC(N)=O)CNCC(=O)N[C@@H](Cc2ccc(O)cc2)C(=O)N(C)[C@@H](C)C(=O)N[C@@H](CC(=O)O)C(=O)N2CCC[C@H]2C(=O)N[C@@H](CCC(N)=O)C(=O)N[C@@H](CC(C)C)C(=O)N2C[C@H](O)C[C@H]2C(=O)N[C@@H](Cc2c[nH]c3ccccc23)C(=O)N[C@@H](CC(N)=O)C(=O)N[C@@H](Cc2cn(CC(=O)O)c3ccccc23)C(=O)N1C` [Example 9012]: the pIC50 (range classes) is 7.00 to 8.00.
